# Laboratory results from publication PMC12064818, “A general assay platform to study protein pharmacology using ligand-dependent structural dynamics” (Nature Communications, 2025).
# Target: T1, FLuc-C-HiBiT (Photinus pyralis, UniProt P08659)
# T1 construct: firefly luciferase with C-terminal HiBiT tag, E. coli expressed
# Experiment: biochemical
# Details: enzyme activity, 10 uM ATP; read-out: IC50 or SDR50 (mM) / FLuc E
# Procedure: The enzyme activity of FLuc-N-HiBiT, FLuc-C-HiBiT, and FLuc-C-NLuc was measured similar to P. pyralis firefly luciferase (FLuc) as previously described. […] Compounds and controls were added to each plate as described in Supplementary Data 8 with a Hornet pintool system (Wako Automation). Compounds were incubated with respective enzymes for 30–60 min at room temperature protected from light and covered by solid metal lid to prevent evaporation. […] Luciferin was incubated with FLuc enzyme for 5 min before FLuc activity was then measured on a ViewLux CCD imager (PerkinElmer), with exposure times up to ten seconds with medium to high gain settings. Data were normalized to average no enzyme control as 100% enzyme inhibition and average DMSO neutral control. See Supplementary Table 4 for additional details. As a proof-of-concept target, we appended the sensor protein or corresponding α-peptide to either the N- or C-terminus of the target protein firefly luciferase (FLuc), an ATP cofactor-dependent monooxygenase (Supplementary Fig. 1a) having a broad, well-characterized and accessible ligand pharmacology. For initial characterization of the SDR concept, either NLuc or the 11 amino acid HiBiT tag (α-peptide) and complementary 18 kDa LgBiT subunit (ω-fragment), which self-assemble to reconstitute functional NLuc enzyme[24] were tested. In contrast to the ATP-dependent bioluminescent FLuc enzyme, NLuc generates a bright bioluminescence in an ATP-independent manner from the direct oxidation of furimazine (Supplementary Fig. 1b). […] Next, FLuc-C-NLuc, FLuc-N-HiBiT or FLuc-C-HiBiT were assayed with the same inhibitor in an SDR assay format by monitoring bioluminescence from NLuc or its reconstitution by α-complementation with LgBiT. Measurements of NLuc activity were made either in the absence or presence of the FLuc ATP cofactor, as NLuc bioluminescence is ATP-independent.
# T1 sequence (P08659 whole entry, looked up): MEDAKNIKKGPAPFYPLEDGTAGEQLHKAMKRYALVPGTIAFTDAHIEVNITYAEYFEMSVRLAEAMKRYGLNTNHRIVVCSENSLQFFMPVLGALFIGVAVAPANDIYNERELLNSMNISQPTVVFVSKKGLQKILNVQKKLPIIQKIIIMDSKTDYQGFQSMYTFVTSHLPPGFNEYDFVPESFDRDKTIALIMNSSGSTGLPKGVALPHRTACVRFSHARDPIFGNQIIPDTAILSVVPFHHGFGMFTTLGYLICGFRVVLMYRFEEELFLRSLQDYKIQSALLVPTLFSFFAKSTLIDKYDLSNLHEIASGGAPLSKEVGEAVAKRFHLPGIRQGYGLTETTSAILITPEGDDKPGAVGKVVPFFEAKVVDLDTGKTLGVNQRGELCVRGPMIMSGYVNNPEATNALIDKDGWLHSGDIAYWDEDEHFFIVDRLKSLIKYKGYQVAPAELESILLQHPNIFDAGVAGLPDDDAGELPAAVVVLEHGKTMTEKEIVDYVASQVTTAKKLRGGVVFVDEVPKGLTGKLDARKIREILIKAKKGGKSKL
row,Compound,IC50
1,CCOc1ncccc1C(=O)OCC(=O)Nc1ccc(-c2nc3ccc(C)cc3s2)cc1 [MLS000418033-02],16 µM
2,Cc1ccc(C(=O)Nc2cccc(C(=O)O)c2)cc1 [MLS000530214-02],0.0556 µM
3,Nc1nc2c(ncn2COCCO)c(=O)[nH]1 [NCGC00015061-13],> 30 µM
4,O=c1[nH]nc2n1CCCCC2 [NCGC00019120-02],> 30 µM
5,Cc1n[nH]c2c1C(c1ccc(Cl)cc1)C(C#N)=C(N)O2 (stereo not drawn) [NCGC00027933-02],> 30 µM
6,Clc1cccc(-c2nc(-c3ccccn3)no2)c1 [NCGC00035901-01],0.989 µM
7,CN1CCN(C(=O)COc2ccc(-c3nc4ccccc4s3)cc2)CC1 [NCGC00042506-01],0.495 µM
8,c1ccc(-c2noc(-c3ccc4ccccc4c3)n2)cc1 [NCGC00045018-01],0.7 µM
9,Fc1ccccc1-c1nc(-c2ccccc2)no1 [NCGC00058026-03],1.57 µM
10,Cc1ccc(-c2nc(-c3ccccn3)no2)cc1Cl [NCGC00070724-01],0.624 µM
11,Brc1ccccc1-c1nc(-c2ccccc2)no1 [NCGC00075547-01],3.51 µM
12,Clc1ccc(-c2nc(-c3ccccn3)no2)cc1Cl [NCGC00075852-01],5.56 µM
13,Cc1ccc(-c2noc(-c3ccccc3Br)n2)cc1 [NCGC00079622-01],1.57 µM
14,Brc1ccc(-c2nc(-c3ccccn3)no2)o1 [NCGC00079657-01],1.24 µM
15,c1ccc(-n2ncc3c(N4CCCCC4)ncnc32)cc1 [NCGC00081373-03],0.881 µM
16,CC1CCCN(c2ncnc3c2cnn3-c2ccccc2)C1 (stereo not drawn) [NCGC00081381-02],0.442 µM
17,CC1CCCN(c2ncnc3c2cnn3-c2ccc(Cl)cc2)C1 (stereo not drawn) [NCGC00081383-02],0.124 µM
18,Cc1ccc(-n2ncc3c(N4CCCC(C)C4)ncnc32)c(C)c1 (stereo not drawn) [NCGC00081401-03],11.1 µM
19,CC1CCN(c2ncnc3c2cnn3-c2ccccc2)CC1 [NCGC00081403-02],6.24 µM
20,Cc1ccc(-c2nc(-c3ccccc3)no2)c(Cl)c1 [NCGC00085930-01],0.197 µM
21,O=c1[nH]cnc2c1ncn2[C@H]1CC[C@@H](CO)O1 [NCGC00090691-03],> 30 µM
22,Cc1ccc2nc(-c3ccc(N)cc3)sc2c1[S+](=O)([O-])O [NCGC00091147-01],2.48 µM
23,Nc1nc2c(nc(S)n2[C@@H]2O[C@H](CO)[C@@H](O)[C@H]2O)c(=O)[nH]1 [NCGC00096124-01],2.48 µM
24,Oc1c(Br)cc(Br)cc1-c1nc2ccccc2s1 [NCGC00098096-01],12.4 µM
25,CC(=O)Nc1cc(-c2nc3ccccc3s2)ccc1C [NCGC00098099-01],7 µM
26,COc1cccc2cc(-c3nnc(-c4ccc(Cl)cc4)o3)c(=O)oc12 [NCGC00098120-01],3.51 µM

row,Compound,IC50
1,Nc1ccc2nc(-c3ccc(O)cc3)sc2c1 [NCGC00098122-01],0.624 µM
2,CC(=O)c1ccc(N[S+](=O)([O-])c2cccc([S+](=O)([O-])c3ccc(Cl)cc3)c2)cc1 [NCGC00098154-01],> 30 µM
3,Cc1ccc2nc(-c3ccc(NC(=O)COc4ccc(Br)cc4Br)cc3)sc2c1 [NCGC00098202-02],3.51 µM
4,Cc1ccc2nc(-c3ccc(NC(=O)COc4ccc(Cl)c(C)c4)cc3)sc2c1 [NCGC00098204-01],> 30 µM
5,Cc1ccc2nc(-c3ccc(NC(=O)COc4ccccc4)cc3)sc2c1 [NCGC00098210-01],6.24 µM
6,Cc1ccc2nc(-c3ccc(NC(=O)COc4ccccc4C(C)(C)C)cc3)sc2c1 [NCGC00098265-01],14 µM
7,Cc1ccc(NC(=O)/C=C/c2ccccc2Cl)cc1Cl [NCGC00098283-01],3.51 µM
8,COc1ccccc1-c1nc2cc(NC(=O)c3ccccc3Cl)ccc2o1 [NCGC00098320-01],11.1 µM
9,Cc1ccc2c(c1)sc1nc(-c3cc4ccccc4oc3=O)cn12 [NCGC00098323-01],0.248 µM
10,CCc1ccc2oc(-c3ccc(NC(=O)c4ccc(OC)c(Br)c4)cc3)nc2c1 [NCGC00098340-01],> 30 µM
11,CCCCCSc1nnc(-c2ccc(Br)cc2)o1 [NCGC00098355-01],> 30 µM
12,O=C(Nc1ccccc1C(=O)O)c1cccc([S+](=O)([O-])N2CCCC2)c1 [NCGC00098464-01],12.4 µM
13,Cc1ccc(C(=O)Nc2cccc(C(=O)O)c2)cc1[S+](=O)([O-])N1CCCC1 [NCGC00098466-01],0.0881 µM
14,Cc1ccc(C(=O)Nc2ccccc2C(=O)O)cc1[S+](=O)([O-])N1CCCCCC1 [NCGC00098472-01],2.79 µM
15,COc1cc(OC)cc(C(=O)Nc2ccccc2-c2nc3ccccc3s2)c1 [NCGC00098479-01],> 30 µM
16,CCC(=O)Nc1cc2nn(-c3ccc(C)cc3)nc2cc1C [NCGC00098511-01],0.394 µM
17,COc1ccc(OCC(=O)Nc2cc(-c3nc4ccccc4s3)ccc2C)cc1 [NCGC00098594-01],12.4 µM
18,Cc1ccc(-c2nc3ccccc3s2)cc1NC(=O)COc1ccccc1 [NCGC00098596-01],> 30 µM
19,O=C(Nc1ccc(-c2nc3ccccc3s2)c(O)c1)c1ccc(Br)cc1 [NCGC00098662-01],> 30 µM
20,O=C(COc1ccccc1Cl)Nc1ccc(-c2nc3ccccc3s2)cc1 [NCGC00098726-01],> 30 µM
21,O=C(COc1ccc(Cl)cc1)Nc1ccc(-c2nc3ccccc3s2)c(O)c1 [NCGC00098783-01],> 30 µM
22,Cc1ccc2nc(-c3ccc(NC(=O)Cc4ccccc4)cc3)sc2c1 [NCGC00098885-01],9.89 µM
23,O=C(Nc1cc(-c2nc3ccccc3s2)ccc1Cl)c1cc2ccccc2o1 [NCGC00098905-01],> 30 µM
24,CCc1ccc2oc(-c3cccc(NC(=O)c4cc5ccccc5o4)c3)nc2c1 [NCGC00098909-01],12.4 µM
25,N#C/C(=C\c1ccc(-c2cc(Cl)ccc2Cl)o1)C(=O)Nc1ccccc1C(=O)O [NCGC00098944-01],17.6 µM
26,Clc1ccc(OCc2nc3ccccc3n2Cc2ccccc2)c(Cl)c1 [NCGC00098959-01],7 µM

row,Compound,IC50
1,O=C(Nc1ccc2oc(-c3ccccc3F)nc2c1)c1ccccc1Cl [NCGC00098974-01],5.56 µM
2,COc1ccc(NC(=O)/C(C#N)=C/c2ccc(C)o2)cc1 [NCGC00099040-01],6.24 µM
3,Cc1cc2nn(-c3ccc(Cl)cc3)nc2cc1NC(=O)C(C)C [NCGC00099081-01],0.7 µM
4,COc1ccc(OCC(=O)Nc2ccc(O)c(-c3nc4ccccc4s3)c2)cc1 [NCGC00099132-01],> 30 µM
5,N#Cc1c(-n2ncnc2-c2ccc(Br)cc2)sc2c1CCCCC2 [NCGC00099350-01],9.89 µM
6,COc1cccc2cc(C(=O)Nc3ccc(C)cc3)c(=O)oc12 [NCGC00099361-01],0.495 µM
7,Cc1cccc(OCC(=O)Nc2cccc(-c3nc4ccccc4s3)c2)c1 [NCGC00099366-01],6.24 µM
8,N#Cc1c(-n2ncnc2-c2cccc(Cl)c2)sc2c1CCCCC2 [NCGC00099368-01],1.97 µM
9,N#Cc1c(-n2ncnc2-c2cccc(Br)c2)sc2c1CCCCC2 [NCGC00099370-01],3.13 µM
10,N#Cc1c(-n2ncnc2-c2ccccc2Cl)sc2c1CCCCC2 [NCGC00099372-01],2.21 µM
11,O=C(COc1ccc(Cl)cc1)Nc1ccc(-c2nc3cc(Cl)ccc3o2)c(O)c1 [NCGC00099397-01],7 µM
12,CCOc1ccc2nc(NC(=O)c3ccccc3)sc2c1 [NCGC00099426-02],0.881 µM
13,O=C(Nc1cccc(-c2nc3ccccc3[nH]2)c1)c1ccccc1F [NCGC00099429-01],14 µM
14,Cc1ccc2nc(-c3ccc(NC(=O)COc4c(C)ccc(C)c4C)cc3)sc2c1 [NCGC00099580-01],11.1 µM
15,Cc1ccc(C(=O)Nc2ccc3oc(-c4cccnc4)nc3c2)c(Cl)c1 [NCGC00099674-01],1.4 µM
16,Cc1cccc(NC(=O)c2c(N)sc3c2CCC(C)C3)c1 (stereo not drawn) [NCGC00099772-01],9.89 µM
17,CCOC(=O)c1ccc(NC2SC(=O)N(Cc3cccc(C(=O)O)c3)C2=O)cc1 (stereo not drawn) [NCGC00099894-01],12.4 µM
18,Cc1ccc2nc(-c3ccc(NC(=O)C(F)(F)F)cc3)sc2c1 [NCGC00100068-01],0.785 µM
19,CCCOC(=O)CSc1ncnc2sc3c(c12)CCC(C)C3 (stereo not drawn) [NCGC00100112-01],11.1 µM
20,Nc1c(C(=O)Nc2ccc(C(=O)O)cc2)sc2nc3c(cc12)CCCC3 [NCGC00100367-01],0.176 µM
21,CCOC(=O)C1(C)C=C(Nc2cccc(C(=O)O)c2)C(=O)N1c1ccccc1 (stereo not drawn) [NCGC00100416-01],12.4 µM
22,COc1ccc(C(=O)Oc2ccc(C(c3c(C)n[nH]c3O)c3c(C)n[nH]c3O)cc2)cc1 [NCGC00100425-01],9.89 µM
23,COc1ccc(-c2cc(=O)c3cc(OCC(=O)OC(C)C)ccc3o2)cc1 [NCGC00100608-01],3.94 µM
24,COc1ccc2oc(=O)c(C(=O)Nc3cccc(C(=O)O)c3)cc2c1 [NCGC00100698-01],0.0157 µM
25,COc1ccc(C(=O)COC(=O)CCCC(=O)Nc2ccc(C(C)=O)cc2)cc1 [NCGC00100762-01],9.89 µM
26,O=C(COC(=O)c1cc(-c2cccs2)nc2ccccc12)c1ccc(Br)cc1 [NCGC00100768-01],> 30 µM
